This note sets out measurements from patent publication US8076324B2, “Di(hetero)arylcyclohexane derivatives, their preparation, their use and pharmaceutical compositions comprising them” (Sanofi-Aventis, priority 2007, dated 2011).

Where a name gives a salt, the structure may show the parent alone. Bounds are passed on as bounds.

Data set [1] deals with T1, myocardial ATP-sensitive potassium channel (SUR2A/Kir6.2) (UniProt Q61743+Q63563).
T1 construct: expressed in transfected cells
The experiment in a line: Rubidium efflux test on HEK293 cells transfected with SUR2A and Kir6.2 (myocardial action). To be noted: HEK293 cells transfected with SUR2A/Kir6.2; KATP channels opened by rilmakalim; 25 min incubation; read-out: IC50 values for the inhibition of the rubidium efflux. The format is cell-based, SUR2A from the rat, Kir6.2 from the mouse. Here is the method:
1) Action on the SUR2A/Kir6.2 potassium channel (myocardial action) The action of the compounds on the ion transport through the myocardial ATP-sensitive potassium channel (SUR2A/Kir6.2) was determined in the rubidium efflux test system described below on human embryonic kidney cells HEK293 which were transfected with the components SUR2A and Kir6.2 (cf. Weyermann et al., Naunyn-Schmiedeberg's Arch. Pharmacol. 369, 374-381 (2004)).
The HEK293 cells were cultured at 37° C. in a humidified air atmosphere with 7% carbon dioxide in minimal essential medium with Earle's salts and L-glutamine (MEM, Gibco), which was supplemented with 10% fetal calf serum and zeozin (0.36 mg/ml) and geneticin (0.75 mg/ml). The transfection of the cells and the preparation of a cell line with stable expression of Kir6.2 from the mouse (accession number AF037313) and SUR2A from the rat (accession number D83598/L40624) were carried out as described in Giblin et al., J. Biol. Chem. 274, 22652-22659 (1999).
60 000 transfected cells per well were inoculated into a poly-D-lysine-coated 96-well microtiter plate (Greiner #650 201). After incubation for 24 h at 37° C., the cells were washed three times with buffer 1 (150 mM NaCl, 2 mM CaCl2, 0.8 mM NaH2PO4, 1 mM MgCl2, 5 mM glucose, 25 mM HEPES, pH=7.4). Subsequently, the buffer solution was replaced by 100 μl of rubidium loading buffer (buffer 1 with 5.4 mM RbCl) and the cells were incubated for a further 3 h at 37° C. The rubidium loading buffer was then removed by washing the cells three times with 200 μl each of potassium chloride wash buffer (buffer 1 with 5.4 mM KCl). After addition of the test substances (70 μl; dissolved in potassium chloride wash buffer with addition of DMSO), the KATP channels of the cells were opened by addition of 70 μl of rilmakalim (2 μM) (cf. Krause et al., Pflügers Arch. 429, 625-635 (1995)) and the cells were incubated at 37° C. for 25 min. Subsequently, the cell supernatants were transferred to a new 96-well microtiter plate and the cells were lyzed by addition of 200 μl of lysis buffer (buffer 1 with 1% Triton X-100). The concentrations of Rb^+ in the cell supernatant and in the cell lyzate were measured by means of atomic absorption spectroscopy using an Al 1200 apparatus (Aurora Instruments Ltd.).
The Rb^+ efflux rate was calculated as [Rb^+SN]/[Rb^+total], wherein [Rb^+SN] is the amount of Rb^+ in the cell supernatant and [Rb^+total] is the sum of the amounts of Rb^+ in the cell supernatant and cell lyzate. IC50 values for the inhibition of the rubidium efflux were calculated with the aid of the Hill equation.

T1 sequence (Q63563 whole entry): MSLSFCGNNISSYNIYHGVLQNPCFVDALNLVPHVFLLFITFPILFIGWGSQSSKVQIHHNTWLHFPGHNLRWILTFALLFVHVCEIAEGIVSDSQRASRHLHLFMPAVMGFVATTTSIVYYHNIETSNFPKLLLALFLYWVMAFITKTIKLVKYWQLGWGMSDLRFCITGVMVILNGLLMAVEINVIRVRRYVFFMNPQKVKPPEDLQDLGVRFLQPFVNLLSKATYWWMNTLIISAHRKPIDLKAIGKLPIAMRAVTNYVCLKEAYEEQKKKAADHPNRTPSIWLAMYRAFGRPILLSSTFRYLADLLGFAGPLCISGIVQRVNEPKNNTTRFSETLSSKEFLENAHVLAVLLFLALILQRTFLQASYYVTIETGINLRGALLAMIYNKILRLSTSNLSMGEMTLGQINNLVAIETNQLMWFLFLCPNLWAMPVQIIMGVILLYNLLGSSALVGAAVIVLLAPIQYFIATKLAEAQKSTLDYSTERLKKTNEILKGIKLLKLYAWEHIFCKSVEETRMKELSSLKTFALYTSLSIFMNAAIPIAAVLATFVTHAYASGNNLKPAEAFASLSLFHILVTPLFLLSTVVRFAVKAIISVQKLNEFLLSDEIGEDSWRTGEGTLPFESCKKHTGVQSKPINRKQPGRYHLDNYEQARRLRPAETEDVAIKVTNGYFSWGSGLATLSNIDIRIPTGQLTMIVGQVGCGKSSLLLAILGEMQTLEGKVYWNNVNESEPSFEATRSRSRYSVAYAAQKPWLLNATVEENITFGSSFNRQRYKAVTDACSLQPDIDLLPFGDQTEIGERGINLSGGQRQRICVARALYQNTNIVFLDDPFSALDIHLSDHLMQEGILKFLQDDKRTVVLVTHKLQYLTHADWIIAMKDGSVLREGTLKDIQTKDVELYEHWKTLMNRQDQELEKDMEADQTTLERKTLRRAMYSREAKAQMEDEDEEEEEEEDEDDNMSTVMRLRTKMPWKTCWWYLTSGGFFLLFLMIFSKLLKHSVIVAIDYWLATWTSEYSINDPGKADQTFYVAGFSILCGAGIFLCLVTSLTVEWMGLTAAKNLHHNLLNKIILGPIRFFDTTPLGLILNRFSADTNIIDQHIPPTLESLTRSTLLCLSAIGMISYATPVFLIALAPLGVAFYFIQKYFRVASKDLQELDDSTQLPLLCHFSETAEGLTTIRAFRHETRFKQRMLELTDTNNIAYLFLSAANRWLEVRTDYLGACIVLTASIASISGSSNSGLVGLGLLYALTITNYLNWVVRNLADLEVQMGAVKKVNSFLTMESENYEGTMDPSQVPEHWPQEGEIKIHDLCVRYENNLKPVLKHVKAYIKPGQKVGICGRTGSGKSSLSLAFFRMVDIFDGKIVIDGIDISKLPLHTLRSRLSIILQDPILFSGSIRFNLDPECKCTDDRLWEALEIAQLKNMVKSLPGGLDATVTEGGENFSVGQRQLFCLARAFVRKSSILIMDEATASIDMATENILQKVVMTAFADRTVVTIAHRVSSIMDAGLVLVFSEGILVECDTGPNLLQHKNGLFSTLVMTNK
T1 sequence (Q61743 whole entry): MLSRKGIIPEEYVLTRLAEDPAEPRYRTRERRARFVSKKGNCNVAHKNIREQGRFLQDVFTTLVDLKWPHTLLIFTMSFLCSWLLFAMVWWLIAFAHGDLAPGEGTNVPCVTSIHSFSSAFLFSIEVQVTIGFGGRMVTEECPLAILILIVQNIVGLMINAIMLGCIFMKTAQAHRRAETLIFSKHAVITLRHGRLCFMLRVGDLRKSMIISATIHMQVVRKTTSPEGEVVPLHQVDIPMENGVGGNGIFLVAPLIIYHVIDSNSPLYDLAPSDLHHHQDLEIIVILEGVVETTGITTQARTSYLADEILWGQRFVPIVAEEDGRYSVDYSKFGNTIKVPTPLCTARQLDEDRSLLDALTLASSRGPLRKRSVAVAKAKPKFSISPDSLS

`Cc1nc([C@]2(Oc3ccccc3)CC[C@](C(=O)O)(c3ccccc3)CC2)n(CC2CC2)c1Cl` [Example 400, Cis 4-(5-Chloro-1-cyclopropylmethyl-4-methyl-1H-imidazol-2-yl)-4-phenoxy-1-phenylcyclohexanecarboxylic Acid]: the melting point (in general, the temperature, or range, at which the solid turns liquid) worked out at 170 °C. For the same compound, the IC50 (commonly the concentration at which inhibition is half-maximal) in data set [1] is less than 1000 nM.

In turn, `Cc1nc([C@]2(OCC3CC3)CC[C@](C(=O)O)(c3ccccc3)CC2)n(CC2CC2)c1-c1ccccc1` [Example 426, Cis-4-Cyclopropylmethoxy-4-(1-cyclopropylmethyl-4-methyl-5-phenyl-1H-imidazol-2-yl)-1-phenylcyclohexanecarboxylic Acid] displayed a melting point of 218 °C. Further, the IC50 in data set [1] is less than 1000 nM.

For `Cc1c(Cl)nc([C@]2(OCC3CC3)CC[C@](C(=O)O)(c3ccc(F)cc3)CC2)n1CC1CC1` [Example 360, Cis-4-(4-Chloro-1-cyclopropylmethyl-5-methyl-1H-imidazol-2-yl)-4-cyclopropylmethoxy-1-(4-fluorophenyl)cyclohexanecarboxylic Acid], the melting point amounted to 185 °C. The IC50 in data set [1] is less than 1000 nM.

As to `CS(=O)(=O)c1cccc(-c2nc([C@]3(Oc4ccccc4)CC[C@@](C(=O)O)(c4ccccc4)CC3)n(CC3CC3)n2)c1` [Example 463, Trans-4-[2-Cyclopropylmethyl-5-(3-methanesulfonylphenyl)-2H-[1,2,4]triazol-3-yl]-4-phenoxy-1-phenylcyclohexanecarboxylic Acid], the melting point was 198 °C. Also, the IC50 in data set [1] is less than 1000 nM.

In the case of `CS(=O)(=O)c1cccc2c1nc([C@]1(OCC3CC3)CC[C@](C(=O)O)(c3ccccc3)CC1)n2CC1CC1`, the melting point turned out to be 227 °C.

The compound `O=C(O)[C@]1(c2ccc(F)cc2)CC[C@@](OCC2CC2)(c2cn(CC3CC3)c(-c3ccccc3)n2)CC1` yielded a melting point of 198 °C.

For the compound `Cc1nc([C@]2(OCC3CC3)CC[C@](C(=O)O)(c3ccccc3)CC2)n(CC2CC2)c1S(C)(=O)=O` (as salt: sulfonic acid salt), the melting point is 206 °C.

In turn, `O=C(O)[C@]1(c2ccc(F)cc2)CC[C@](Oc2ncccn2)(c2ccc(F)cn2)CC1` had a melting point of 159 °C.

For `O=C(O)[C@]1(c2ccccc2)CC[C@@](OCC2(c3ccccc3)COC2)(c2nccn2CC2CC2)CC1` [Example 497, 4-(1-Cyclopropylmethyl-1H-imidazol-2-yl)-1-phenyl-4-(3-phenyloxetan-3-ylmethoxy)cyclohexanecarboxylic Acid], the IC50 in data set [1] is less than 1000 nM.

Turning to `Cc1nc([C@]2(OCCC(C)C)CC[C@](C(=O)O)(c3ccccc3)CC2)n(CC2CC2)c1C` [Example 376], the IC50 in data set [1] was less than 1000 nM.

On to `COC1(c2cnc3ccccc3c2)CCC(C(=O)O)(c2ccccc2)CC1` (stereo not shown) [Example 136], for which the IC50 in data set [1] was less than 1000 nM.

On to `CS(=O)(=O)c1cccc2nc([C@]3(OCC4CC4)CC[C@](C(=O)O)(c4ccccc4)CC3)n(CC3CC3)c12` [Example 455], for which the IC50 in data set [1] was less than 1000 nM.

As for `COC1(c2ccc(F)cc2)CCC(C(=O)O)(c2ccccc2)CC1` (stereo not shown) [Example 92, 4-(4-Fluorophenyl)-4-methoxy-1-phenylcyclohexanecarboxylic Acid], the IC50 in data set [1] is less than 1000 nM.

On to `O=C(O)[C@]1(c2ccccc2)CC[C@](OCC2CC2)(c2cc(-c3ccccc3)ccn2)CC1` [Example 486, Trans-4-Cyclopropylmethoxy-1-phenyl-4-(4-phenylpyridin-2-yl)cyclohexanecarboxylic Acid], for which, in data set [1], the IC50 is less than 1000 nM.

Turning to `CS(=O)(=O)c1ccccc1C1(OCC2CC2)CCC(C(=O)O)(c2ccc(F)cc2)CC1` (stereo not shown) [Example 254], the IC50 in data set [1] is less than 1000 nM.

As to `CCOC1(c2cccc(S(C)(=O)=O)c2)CCC(C(=O)O)(c2ccccc2)CC1` (stereo not shown) [Example 167], in data set [1], the IC50 is less than 1000 nM.

For `Cc1nc([C@]2(OCC3CC3)CC[C@](C(=O)O)(c3ccc(F)cc3)CC2)n(CC2CC2)c1C` [Example 365], in data set [1], the IC50 is less than 1000 nM.

For `O=C(O)C1(c2ccccc2)CCC(O)(c2ccc(C(F)(F)F)cc2)CC1` (stereo not shown) [Example 101], the concentration for half-maximal inhibition (IC50) in data set [1] was less than 1000 nM.

Regarding `CCCOC1(c2cccc(S(C)(=O)=O)c2)CCC(C(=O)O)(c2ccccc2)CC1` (stereo not shown) [Example 168], the IC50 in data set [1] was less than 1000 nM.

Consider `CCCn1c(Cl)c(C)nc1[C@]1(OCCOC)CC[C@](C(=O)O)(c2ccccc2)CC1` [Example 390], for which, in data set [1], the IC50 is less than 1000 nM.

With `O=C(O)[C@]1(c2ccc(F)cc2)CC[C@@](OCC2CC2)(c2nc3ccccc3n2CC2CC2)CC1` [Example 366], in data set [1], the IC50 is less than 1000 nM.

Turning to `O=C(O)[C@]1(c2ccccc2)CC[C@@](OCC2CC2)(c2ncc(C(F)(F)F)n2CC2CC2)CC1` [Example 378], the IC50 in data set [1] was less than 1000 nM.

For the compound `Cc1nc([C@]2(OCC3CC3)CC[C@](C(=O)O)(c3cccc(OC(F)(F)F)c3)CC2)n(CC2CC2)c1Cl` [Example 409], the IC50 in data set [1] was less than 1000 nM.

Take `O=C(O)[C@]1(c2ccc(F)cc2)CC[C@](OCC2CC2)(c2ccc(F)cn2)CC1`: the melting point is 211 °C.

In the case of `Cc1nc([C@]2(OCC3CC3)CC[C@](C(=O)O)(c3ccccc3)CC2)n(C)c1Cl` [Example 391], in data set [1], the IC50 was less than 1000 nM.

For `Cc1c(Br)nc([C@]2(Oc3ccccc3)CC[C@@](C(=O)O)(c3ccc(F)cc3)CC2)n1CC1CC1` [Example 404], the IC50 in data set [1] is less than 1000 nM.

In the case of `Cc1nc([C@]2(OCC3CC3)CC[C@](C(=O)O)(c3cccnc3)CC2)n(CC2CC2)c1Cl` [Example 407], the IC50 in data set [1] is less than 1000 nM.

In the case of `COC1(c2cccc(F)c2F)CCC(C(=O)O)(c2ccccc2)CC1` (stereo not shown) [Example 120], in data set [1], the IC50 was less than 1000 nM.

Turning to `O=C(O)[C@]1(c2ccccc2)CC[C@@](OCC2(c3ccccc3)COC2)(c2ccc(F)cc2)CC1` [Example 499, 4-(4-Fluorophenyl)-1-phenyl-4-(3-phenyloxetan-3-ylmethoxy)cyclohexanecarboxylic Acid], in data set [1], the IC50 was less than 1000 nM.

`CC(C)(C)S(=O)(=O)c1cc(F)cc([C@]2(OCC3CC3)CC[C@](C(=O)O)(c3ccc(F)cc3)CC2)c1` [Example 304-3, Cis-4-Cyclopropylmethoxy-4-[3-fluoro-5-(2-methylpropane-2-sulfonyl)phenyl]-1-(4-fluorophenyl)cyclohexanecarboxylic Acid]: the IC50 in data set [1] is less than 1000 nM.

Consider `COC1(c2ccc(F)cc2)CCC(C(=O)O)(c2ccccc2OC(F)(F)F)CC1` (stereo not shown) [Example 238], for which the half-inhibitory concentration (IC50) in data set [1] was less than 1000 nM.

For `COC1(c2cccc(C(F)(F)F)c2)CCC(C(=O)O)(c2ccccc2)CC1` (stereo not shown) [Example 125], the IC50 in data set [1] is less than 1000 nM.

With `CCOC1(c2ccccc2S(C)(=O)=O)CCC(C(=O)O)(c2ccccc2)CC1` (stereo not shown) [Example 173], the concentration for half-maximal inhibition (IC50) in data set [1] is less than 1000 nM.

Take `CSc1cc(F)ccc1C1(OCC2CC2)CCC(C(=O)O)(c2ccc(F)cc2)CC1` (stereo not shown) [Example 243]: the IC50 in data set [1] is less than 1000 nM.

With `Cc1c(F)cc([C@]2(OCC3CC3)CC[C@](C(=O)O)(c3ccccc3)CC2)cc1S(C)(=O)=O` [Example 482, Cis-4-Cyclopropylmethoxy-4-(3-fluoro-5-methanesulfonyl-4-methylphenyl)-1-phenylcyclohexanecarboxylic Acid], the IC50 in data set [1] was less than 1000 nM.

Consider `O=C(O)C1(c2ccccc2)CCC(O)(c2ccc(Br)cc2)CC1` (stereo not shown) [Example 105], for which the IC50 in data set [1] was less than 1000 nM.
